Source: patent US20140096284A1, “METHOD FOR THE DELIVERY OF MOLECULES LYOPHILIZED ONTO MICROPARTICLES TO PLANT TISSUES” (priority 2012, published 2014)

How the values were obtained:
onion epidermis tissue [1] = experiment: Fluorescein diacetate staining, count of dead cells after bombardment; assay type: cell-based; settings: 250 μg per shot
Procedure: Onion epidermis tissues were submerged in 10 mL of MS liquid media to which 100 μL of a 5 mg mL^−1 of fluorescein diacetate (Alfa Aesar) solution in acetone were added. The samples were incubated for 2-5 minutes and directly observed under the green channel filter of the fluorescence microscope. For quantitative measurements, 12 images (10.5×8 mm) were taken with the 5× microscope objective scattered every 0.5 cm (4 columns×3 rows). The total amount of dead cells found on each image was counted.
The high concentration of protein used per shot (250 μg per shot) and the lyophilization process could cause cell death by: (1) physical damage of the potential clumps produced after lyophilizing protein and microparticles and (2) excess of intracellular protein delivery reaching toxic levels. To assess cellular death, onion epidermis tissues were stained with fluorescein diacetate, which stains in fluorescent green the living cells, while the dead ones remain dark (FIG. 7A). […]
As another example of active enzyme delivery, trypsin and RNAse A were chosen. […] The number of dead cells was measured using fluorescein diacetate staining in samples not bombarded, bombarded only with 0.6 μm gold or with 200 μg of trypsin or 40 μg of RNAse per shot. […]

tobacco leaf cells = experiment: Biolistic delivery of molecules lyophilized onto 0.6 μm gold to tobacco leaf tissue; assay type: cell-based, Nicotiana tabacum var. Petite Havana; settings: 250 μg per shot lyophilized onto 0.6 μm gold; tobacco leaves
Procedure: (§1) Onion epidermis tissue was obtained from the scale leaves of white onion bulbs. Rectangular (3×2.5 cm) pieces were peeled right before the bombardment and placed in solid agar media (0.5 mM of 2-(N-morpholino)ethanesulfonic acid (MES), 15 g L^−1 Bacto agar (BD), pH 5.7) with the peeled side upwards. For quantitative measurements, epidermis pieces of the same scale leaf were distributed among treatments. Tobacco leaves (Nicotiana tabacum var. Petite Havana) were obtained from 3-6 week old in vitro grown plants on MS media (MS medium (Murashige and Skoog, 1962), 2% sucrose, 2.5 g L^−1 gelrite, pH 5.7). Leaves were cut right before bombardment and put with the adaxial surface up on agar media. Hill maize immature embryos were obtained from immature ears provided by the Center for Plant Transformation—Iowa State University. Immature embryos (1-2 mm long) were cultured as previously described (Frame et al., 2000).
(§2) The saturated solutions of chemical or biomolecules used were done as follows (data per shot): for bromophenol blue (Sigma) delivery 10 μL of a 100 μg 1 μL^−1 mg solution were used. For plasmid DNA delivery, 2 μL of a 500 ng μL^−1 solution of the plasmid pLMNC95 (Luke Mankin and Thompson, 2001) were used for GFP expression. For mCherry expression linear dsDNA, the plasmid ER-rk (Nelson et al., 2007) was digested with the restriction enzymes SacI-HindIII. […]

maize immature embryos = experiment: Biolistic delivery of molecules lyophilized onto 0.6 μm gold to maize immature embryos; assay type: cell-based; settings: 250 μg per shot lyophilized onto 0.6 μm gold; maize Hi II immature embryo scutella
Procedure: as §1, §2

onion epidermis tissue [2] = experiment: Biolistic delivery of molecules lyophilized onto 0.6 μm gold microcarriers to onion epidermis tissue; assay type: cell-based; settings: lyophilized onto 0.6 μm gold, observed about 30 minutes after bombardment
Procedure: 2 μL of 0.6 μm gold particle stock was mixed with 1 μg of GFP plasmid pLMNC95 or 2 μL of a 400 ng/μL, TRITC-BSA solution. The mixture was poured on a macrocarrier, frozen in liquid nitrogen and freeze-dry for 1 hour prior to onion epidermis tissue bombardment.
as §1, with “Immature embryos (1-2 mm long) were cultured as previously described (Frame et al., 2000).” left out
Bright field and fluorescence images were taken using a Zeiss Axio star plus microscope. […] For the green channel fluorescence images a GFP BP filter (Chroma Technology Corp.) was used (λex=470 nm, beam splitter=495 nm and λem=525 nm). […]

onion epidermis tissue [3] = experiment: Control: solution deposited or incubated on onion epidermis tissue without coated projectiles; assay type: cell-based; settings: solution on the surface of onion epidermis tissue
Procedure: The dye bromophenol blue was used to test the ability of the system to deliver a chemical. As a control, a saturated solution of the dye (10 μL of a 100 μg μL^−1 mg) was deposited with a pipette on top of onion epidermis tissue. […] For the bromophenol blue delivery, the saturated solution was mixed with 0.6 μm gold microcarriers and an aliquot was deposited over a macrocarrier set. This macrocarrier set was frozen in liquid nitrogen for 5-10 minutes and then lyophilized for an hour using a lyophilizer. This macrocarrier set was subsequently used to bombard onion epidermis tissue. […] The amount of dye delivered to each cell was different, and as a consequence, different shades of purple could be observed in the bombarded tissue (FIG. 3C).
Protein delivery can be considered a difficult challenge because proteins could be subjected to denaturation during the delivery process. […] This protein will not fluoresce if denatured (Ward and Bokman, 1982). As a control, to test if the protein could be diffused into plant cells, 10 μL of a 100 ng/μL eGFP solution were incubated for 30 minutes on the surface of intact onion epidermis tissue or bombarded with bare 0.6 μm gold microparticles. […] Lyophilization of eGFP onto 0.6 μm gold microcarriers was done using 2.5 μL of 1 μg μL^−1 solution of the protein and 60 μg of microcarriers per shot.

Compound	number of dead cells compared with bombardment without the protein (onion epidermis tissue [1]; 1 day after bombardment, differences were not significant)	viability of cells showing protein delivery (onion epidermis tissue [1]; stained 1 day after bombardment)	protein delivery (red fluorescence) (tobacco leaf cells)	protein delivery (red fluorescence) (maize immature embryos)	intracellular delivery after bombardment (onion epidermis tissue [2])	permeation or diffusion into cells without coated projectiles (onion epidermis tissue [3])
tetramethylrhodamine isothiocyanate labeled bovine serum albumin [TRITC-BSA]	higher	most of the cells showing TRITC-BSA delivery were alive	delivery could be observed	delivery could be observed	successfully delivered	
O=S1(=O)OC(c2cc(Br)c(O)c(Br)c2)(c2cc(Br)c(O)c(Br)c2)c2ccccc21 [bromophenol blue, reference compound]					several cells were showing bluish-purple coloration	did not permeate
